Source: patent US20240166617A1, “PHOSPHOINOSITIDE 3 KINASE BETA INHIBITORS AND COMPOSITIONS AND METHODS THEREOF” (Geode Therapeutics Inc., priority 2021, published 2024)
Where two headings read alike, the source gives them in different places.

Experiments:
[1] = target: T1, PIK3Cb_h (Homo sapiens, UniProt P42338); assay: Enzyme binding assay (KINOMEscan); conditions: Eurofins DiscoveRx
T1 construct: purchased Eurofins DiscoveRx Corporation
Experimental: Kinase enzyme binding affinities of compounds disclosed herein were determined using the KINOMEscan technology performed by Eurofins DiscoveRx Corporation, San Diego, California, USA (www.eurofinsdiscoveryservices.com). Table 2 reports the obtained PIK3β Kd values (nM) of, with the PIK3β Kd being the inhibitor binding constant. Table 3 reports the obtained Kd values (nM), with the Kd being the inhibitor binding constant: […]

[2] = system: phosphorylation of AKT in HCC70 cells; assay: Cellular assay: phosphorylation of AKT in HCC70 cells (western blotting); format: cell-based; conditions: Homo sapiens, HCC70, 1 h, HCC70 cells, compound 500 nM, 60 min, inhibition of Akt activity from band intensities
Outline: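 HCC70 cells treated with compound at 500 nM (0.1% DMSO control) for 60 min at 37 °C; pAKT Ser473 and Thr308 plus total AKT measured by western blot with fluorescent detection. Inhibition from band intensities, binned as + (20–60%), ++ (60–80%), +++ (80–90%), ++++ (>90%).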

[3] = read-out: Index of AI (HCC70) p-AKT Thr 308
[4] = read-out: Index of AI (HCC70) p-AKT ser 473

T1 sequence (P42338 whole entry): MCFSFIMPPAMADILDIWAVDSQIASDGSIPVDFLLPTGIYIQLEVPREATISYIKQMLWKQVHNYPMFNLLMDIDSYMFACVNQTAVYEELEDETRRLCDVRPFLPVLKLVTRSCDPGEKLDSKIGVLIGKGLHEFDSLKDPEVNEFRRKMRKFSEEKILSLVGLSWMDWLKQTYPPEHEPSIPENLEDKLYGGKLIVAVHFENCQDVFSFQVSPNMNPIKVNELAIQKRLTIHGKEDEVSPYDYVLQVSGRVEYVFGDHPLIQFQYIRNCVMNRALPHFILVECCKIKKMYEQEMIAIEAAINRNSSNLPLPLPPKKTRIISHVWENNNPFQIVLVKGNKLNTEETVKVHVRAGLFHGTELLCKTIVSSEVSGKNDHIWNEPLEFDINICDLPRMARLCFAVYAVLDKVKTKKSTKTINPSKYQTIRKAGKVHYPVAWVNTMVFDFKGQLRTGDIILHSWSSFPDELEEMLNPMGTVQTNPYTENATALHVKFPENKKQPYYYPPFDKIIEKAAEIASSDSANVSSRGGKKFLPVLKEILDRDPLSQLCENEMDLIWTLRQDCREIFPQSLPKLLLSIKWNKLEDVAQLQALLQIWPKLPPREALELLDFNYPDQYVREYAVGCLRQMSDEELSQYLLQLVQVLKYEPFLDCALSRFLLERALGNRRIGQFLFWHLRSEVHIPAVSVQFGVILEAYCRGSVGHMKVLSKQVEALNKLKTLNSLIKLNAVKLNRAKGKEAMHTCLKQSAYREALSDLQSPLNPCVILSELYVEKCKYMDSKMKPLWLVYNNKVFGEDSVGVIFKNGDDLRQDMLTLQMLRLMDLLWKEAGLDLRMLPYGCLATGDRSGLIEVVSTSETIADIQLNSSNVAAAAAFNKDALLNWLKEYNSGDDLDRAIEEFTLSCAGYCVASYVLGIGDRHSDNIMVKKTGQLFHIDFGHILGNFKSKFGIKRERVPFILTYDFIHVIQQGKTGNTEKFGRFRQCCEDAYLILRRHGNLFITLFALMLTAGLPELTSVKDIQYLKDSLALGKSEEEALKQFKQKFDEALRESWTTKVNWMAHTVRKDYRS

Compound | Kd [1] | inhibition at 0.5 µM [2, 3] | inhibition at 0.5 µM [2, 4]
CC(Nc1cc(F)cc(F)c1)c1cc(C(=O)N2CC[C@H](N(C)C)C2)cc2c(=O)cc(N3CCOCC3)oc12 (stereo partly drawn) [Compound 30, 8-(1-((3,5-difluorophenyl)amino)ethyl)-6-((S)-3-(dimethylamino)pyrrolidine-1-carbonyl)-2-morpholino-4H-chromen-4-one] | 0.32 nM | 80 to 90% | 80 to 90%
CC(Nc1cc(F)cc(F)c1)c1cc(N)cc2c(=O)cc(N3CCOCC3)oc12 (stereo not shown) [Compound 19, 6-amino-8-(1-((3,5-difluorophenyl)amino)ethyl)-2-morpholino-4H-chromen-4-one] | 0.067 nM | > 90% | > 90%
CN(C)C(=O)c1cc(CN2CC(C)(C)c3c(F)cc(F)cc32)c2oc(N3CCOCC3)cc(=O)c2c1 [Compound 34, 8-((4,6-difluoro-3,3-dimethylindolin-1-yl)methyl)-N,N-dimethyl-2-morpholino-4-oxo-4H-chromene-6-carboxamide] | 0.37 nM | 80 to 90% | 80 to 90%
CC1Cc2c(F)cc(F)cc2N1C(C)c1cc(C(=O)N(C)C)cc2c(=O)cc(N3CCOCC3)oc12 (stereo not shown) [Compound 38, 8-(1-(4,6-difluoro-2-methylindolin-1-yl)ethyl)-N,N-dimethyl-2-morpholino-4-oxo-4H-chromene-6-carboxamide] | 0.52 nM | > 90% | > 90%
CC(Nc1cc(F)cc(F)c1)c1cc(O)cc2c(=O)cc(N3CCOCC3)oc12 (stereo not shown) [Compound 15, 8-(1-((3,5-difluorophenyl)amino)ethyl)-6-hydroxy-2-morpholino-4H-chromen-4-one] | 0.059 nM | > 90% | > 90%
CC(Nc1cc(F)cc(F)c1)c1cc(C(=O)N2CC[C@@H](N(C)C)C2)cc2c(=O)cc(N3CCOCC3)oc12 (stereo partly drawn) [Compound 29, 8-(1-((3,5-difluorophenyl)amino)ethyl)-6-((R)-3-(dimethylamino)pyrrolidine-1-carbonyl)-2-morpholino-4H-chromen-4-one] | 0.17 nM | > 90% | > 90%
CC(Nc1cc(F)cc(F)c1)c1cc(NS(C)(=O)=O)cc2c(=O)cc(N3CCOCC3)oc12 (stereo not shown) [Compound 13, N-(8-(1-((3,5-difluorophenyl)amino)ethyl)-2-morpholino-4-oxo-4H-chromen-6-yl)methanesulfonamide] | 0.14 nM | 80 to 90% | 80 to 90%
COC(=O)Cc1cc(C(C)Nc2cc(F)cc(F)c2)c2oc(N3CCOCC3)cc(=O)c2c1 (stereo not shown) [Compound 25, methyl 2-(8-(1-((3,5-difluorophenyl)amino)ethyl)-2-morpholino-4-oxo-4H-chromen-6-yl)acetate] | 0.21 nM | > 90% | > 90%
CC(Nc1cc(F)cc(F)c1)c1cc(C(=O)N2CCC(N(C)C)C2)cc2c(=O)cc(N3CCOCC3)oc12 (stereo not shown) [Compound 27, 8-(1-((3,5-difluorophenyl)amino)ethyl)-6-(3-(dimethylamino)pyrrolidine-1-carbonyl)-2-morpholino-4H-chromen-4-one] | 0.28 nM | > 90% | > 90%
CC(Nc1cc(F)cc(F)c1)c1cc(NC(=O)C2CCCC2)cc2c(=O)cc(N3CCOCC3)oc12 (stereo not shown) [Compound 12, N-(8-(1-((3,5-difluorophenyl)amino)ethyl)-2-morpholino-4-oxo-4H-chromen-6-yl)cyclopentanecarboxamide] | 0.55 nM | > 90% | > 90%
CC1(C)CN(C(=O)c2cc(CN3CCc4c(F)cc(F)cc43)c3oc(N4CCOCC4)cc(=O)c3c2)C1 [Compound 87, 8-((4,6-difluoroindolin-1-yl)methyl)-6-(3,3-dimethylazetidine-1-carbonyl)-2-morpholino-4H-chromen-4-one] | – | 60 to 80% | 60 to 80%
CN(C)C(=O)c1cc(CN2CCc3c(F)cc(F)cc32)c2oc(N3CCO[C@H](CF)C3)cc(=O)c2c1 [Compound 93, (S)-8-((4,6-difluoroindolin-1-yl)methyl)-2-(2-(fluoromethyl)morpholino)-N,N-dimethyl-4-oxo-4H-chromene-6-carboxamide] | – | 80 to 90% | 80 to 90%

Further lines, with some results ahead:

Kd [1] | Compound | inhibition at 0.5 µM [2, 3] | inhibition at 0.5 µM [2, 4]
2 nM | Cc1cc(C(C)N2c3cc(F)cc(F)c3CC2C)c2nc(N3CCOCC3)cc(=O)n2c1 (stereo not shown) [Compound 58, 9-(1-(4,6-difluoro-2-methylindolin-1-yl)ethyl)-7-methyl-2-morpholino-4H-pyrido[1,2-a]pyrimidin-4-one] | 80 to 90% | 80 to 90%
0.26 nM | O=C(c1cc(CN2CCc3c(F)cc(F)cc32)c2oc(N3CCOCC3)cc(=O)c2c1)N1CCCC1 [Compound 42, 8-((4,6-difluoroindolin-1-yl)methyl)-2-morpholino-6-(pyrrolidine-1-carbonyl)-4H-chromen-4-one] | > 90% | > 90%
1.3 nM | CN1CCN(C(=O)c2cc(CN3CCc4c(F)cc(F)cc43)c3oc(N4CCOCC4)cc(=O)c3c2)CC1 [Compound 44, 8-((4,6-difluoroindolin-1-yl)methyl)-6-(4-methylpiperazine-1-carbonyl)-2-morpholino-4H-chromen-4-one] | 80 to 90% | 80 to 90%
0.12 nM | C[C@@H](Nc1cc(F)cc(F)c1)c1cc(C(=O)N2CC[C@H](N(C)C)C2)cn2c(=O)cc(N3CCOCC3)nc12 [Compound 51, 9-((R)-1-((3,5-difluorophenyl)amino)ethyl)-7-((S)-3-(dimethylamino)pyrrolidine-1-carbonyl)-2-morpholino-4H-pyrido[1,2-a]pyrimidin-4-one] | > 90% | > 90%
0.61 nM | Cc1cc(C(C)N2CCc3c(F)cc(F)cc32)c2nc(N3CCOCC3)cc(=O)n2c1 (stereo not shown) [Compound 59, 9-(1-(4,6-difluoroindolin-1-yl)ethyl)-7-methyl-2-morpholino-4H-pyrido[1,2-a]pyrimidin-4-one] | 80 to 90% | 80 to 90%
0.11 nM | C[C@@H](Nc1cc(F)cc(F)c1)c1cc(C(=O)N2CC[C@@H](N(C)C)C2)cn2c(=O)cc(N3CCOCC3)nc12 [Compound 50, 9-((R)-1-((3,5-difluorophenyl)amino)ethyl)-7-((R)-3-(dimethylamino)pyrrolidine-1-carbonyl)-2-morpholino-4H-pyrido[1,2-a]pyrimidin-4-one] | > 90% | > 90%
0.072 nM | CN(C)CCNC(=O)c1cc(CN2CCc3c(F)cc(F)cc32)c2oc(N3CCOCC3)cc(=O)c2c1 [Compound 39, 8-((4,6-difluoroindolin-1-yl)methyl)-N-(2-(dimethylamino)ethyl)-2-morpholino-4-oxo-4H-chromene-6-carboxamide] | > 90% | > 90%
0.67 nM | CC(Nc1cc(F)cc(F)c1)c1cc(C(=O)N2CC(N(C)C)C2)cn2c(=O)cc(N3CCOCC3)nc12 (stereo not shown) [Compound 49, 9-(1-((3,5-difluorophenyl)amino)ethyl)-7-(3-(dimethylamino)azetidine-1-carbonyl)-2-morpholino-4H-pyrido[1,2-a]pyrimidin-4-one] | 60 to 80% | 60 to 80%
